Data taken from patent publication US20250282728A1, “NITROGEN COMPRISING HETEROCYCLIC DERIVATIVES FOR THE TREATMENT OF DISORDERS ASSOCIATED WITH GPR55 RECEPTOR” (Cerevance, Inc., priority 2022, published 2025).

How the values were obtained:
human GPR55 = target: T1, human GPR55 (Homo sapiens, UniProt Q9Y2T6); test: Ca2+ mobilization assay (FLIPR, Calcium5 dye), human GPR55; format: cell-based; conditions: HEK293 cells co-expressing PK-tagged human GPR55 and EA-tagged beta-arrestin; intracellular calcium increase
T1 construct: expressed in transfected cells; host or cells: HEK293 (human embryonic kidney) cells
Experimental: (§1) This cell-based assay measures the ability of compounds to activate the GPR55 receptor by measuring changes in intracellular calcium levels. HEK293 (human embryonic kidney) cells co-expressing recombinant ProLink (PK) tagged human or rat GPR55 and Enzyme Acceptor (EA) tagged beta-arrestin were seeded into PDL-coated, black-walled clear-bottom 384 well plates in assay buffer (25 mM HEPES, HBSS, 1 mM Probenicid, 0.1% BSA, pH 7.4) containing Calcium5 dye (Molecular Devices). Cells were incubated in suspension with the Calcium5 dye for 1 hour at 37° C., 5% CO2. Dilution series of the compounds in assay buffer were added to the cells in duplicate wells and compound-mediated real-time increases in intracellular calcium concentration were recorded as increased fluorescence using the Molecular Devices FLIPR instrument. Kinetic traces were reduced to a numerical value by subtracting the minimum response from the maximum response.

rat GPR55 = target: T2, rat GPR55 (Rattus norvegicus, UniProt F1MAK4); test: Ca2+ mobilization assay (FLIPR, Calcium5 dye), rat GPR55; format: cell-based; conditions: HEK293 cells co-expressing PK-tagged rat GPR55 and EA-tagged beta-arrestin; intracellular calcium increase
T2 construct: expressed in transfected cells; host or cells: HEK293 (human embryonic kidney) cells
T2 sequence (F1MAK4 1-319): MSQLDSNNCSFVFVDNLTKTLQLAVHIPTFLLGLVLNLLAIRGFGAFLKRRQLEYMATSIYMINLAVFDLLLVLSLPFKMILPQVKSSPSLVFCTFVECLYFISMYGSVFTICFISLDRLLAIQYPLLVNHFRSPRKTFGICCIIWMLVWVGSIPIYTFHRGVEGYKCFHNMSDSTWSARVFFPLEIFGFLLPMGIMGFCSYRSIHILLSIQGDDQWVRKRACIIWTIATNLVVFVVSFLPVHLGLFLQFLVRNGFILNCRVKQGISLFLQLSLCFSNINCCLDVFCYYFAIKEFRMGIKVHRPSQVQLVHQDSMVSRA
Experimental: as §1

[1] = tested on: striatal medium spiny neurons; test: Electrophysiology assay: whole-cell patch clamp, firing frequency; format: cell-based, Wistar rat; conditions: rat striatal cultures, current steps 10-200 pA
Experimental: Selected compounds were tested in electrophysiology.
Striatal cultures were prepared as follows. Wistar rat embryos (E18) were sacrificed by cervical dislocation and brains removed into an ice-cold hanks balanced salt solution (HBSS) containing 10 mM HEPES, 1 mM sodium pyruvate and 0.035% sodium bicarbonate. The brain was hemisected, striata removed and placed in a papain solution (Worthington LK003150) for 10 min at 37° C. Tissue was then vigorously triturated until devoid of clumps, passed through a 70 μm mesh filter and centrifuged at 1000 rcf for 5 min. Supernatant was discarded and cells resuspended and centrifuged once more through an ovomucoid gradient before final resuspension in plating medium (containing EMEM 75%, FBS 10%, glutamate 12.5 μM, GlutaMax 0.5 mM, sodium pyruvate 10 mM, glucose 33.3 mM, HEPES […]). Cells were counted and spot plated onto 13 mm coverslips at a density of 200K. After 3 h, solution was topped up to 1 ml with growth medium (containing NBplus 98%, B27plus 2%, GlutaMax 0.5 mM). […]
Whole-cell patch clamp recordings were performed from visually identified medium spiny neurons. A step protocol was applied to inject current into the cell (10-200 pA, 10 pA steps, 500 ms) and resulting action potentials recorded. […] Frequency of firing was analysed off-line using Clampfit software.

T1 sequence (Q9Y2T6 whole entry): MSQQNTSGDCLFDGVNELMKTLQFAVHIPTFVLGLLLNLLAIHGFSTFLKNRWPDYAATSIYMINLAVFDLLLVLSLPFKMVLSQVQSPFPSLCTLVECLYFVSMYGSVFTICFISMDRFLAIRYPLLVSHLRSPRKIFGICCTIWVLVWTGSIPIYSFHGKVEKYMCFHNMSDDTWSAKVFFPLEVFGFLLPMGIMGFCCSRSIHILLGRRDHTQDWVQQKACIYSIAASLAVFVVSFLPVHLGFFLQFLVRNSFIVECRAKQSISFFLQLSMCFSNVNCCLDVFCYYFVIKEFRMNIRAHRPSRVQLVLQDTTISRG

EC50 (human GPR55) [nM]	EC50 (rat GPR55) [nM]	SMILES	firing frequency of medium spiny neurons relative to baseline ([1]; 10 μM, FIG. 2)	firing frequency of medium spiny neurons relative to baseline ([1]; 1 μM, FIG. 3)
≤ 200	≤ 50	COc1cncc(-c2ccc(N[C@H](C)c3ccc(F)cc3)nc2)c1 [Example 6, (R)-N-(1-(4-fluorophenyl)ethyl)-5′-methoxy-[3,3′-bipyridin]-6-amine]	significantly reduced the frequency	–
≤ 50	≤ 1000	CCc1cncc(-c2cnc(N[C@H](C)c3ccc(F)cc3)cn2)c1 [Example 17, (R)-5-(5-ethylpyridin-3-yl)-N-(1-(4-fluorophenyl)ethyl)pyrazin-2-amine]	–	–
≤ 50	≤ 200	C[C@@H](Nc1cnc(-c2cncc(CCF)c2)cn1)c1ccc(F)cc1 [Example 52, (R)-5-(5-(2-fluoroethyl)pyridin-3-yl)-N-(1-(4-fluorophenyl)ethyl)pyrazin-2-amine]	–	–
≤ 1000	≤ 1000	C[C@@H](Nc1cnc(-c2ccc3oc(=O)n(C)c3c2)cn1)c1ccc(F)cc1 [Example 62, (R)-5-(5-((1-(4-fluorophenyl)ethyl)amino)pyrazin-2-yl)-3-methylbenzo[d]oxazol-2(3H)-one]	–	–
≤ 1000	≤ 5000	C[C@@H](Nc1ncc(-c2ccc3ncn(C)c3c2)nn1)c1ccc(F)cc1 [Example 81, (R)-N-(1-(4-fluorophenyl)ethyl)-6-(1-methyl-1H-benzo[d]imidazol-6-yl)-1,2,4-triazin-3-amine]	–	–
≤ 1000	≤ 1000	Cc1cnc(C)c(-c2ccc(N[C@H](C)c3ccc(F)cc3)nc2)c1 [Example 10, (R)-N-(1-(4-fluorophenyl)ethyl)-2′,5′-dimethyl-[3,3′-bipyridin]-6-amine]	–	–
≤ 1000	≤ 5000	CCc1cncc(-c2ccc(N[C@H](C)c3ccc(OC)cc3)nc2)c1 [Example 47, (R)-5′-ethyl-N-(1-(4-methoxyphenyl)ethyl)-[3,3′-bipyridin]-6-amine]	–	–
≤ 50	≤ 1000	C[C@@H](Nc1cnc(-c2cncc(C(O)C(F)(F)F)c2)cn1)c1ccc(F)cc1 (single isomer, unassigned) [Example 32b]	–	–
≤ 1000	≤ 1000	C[C@@H](Nc1ncc(-c2ccc3oc(=O)[nH]c3c2)nn1)c1ccc(F)cc1 [Example 69, (R)-5-(3-((1-(4-fluorophenyl)ethyl)amino)-1,2,4-triazin-6-yl)benzo[d]oxazol-2(3H)-one]	–	–
≤ 200	≤ 1000	C[C@@H](Nc1ncc(-c2cncc(CO)c2)nn1)c1ccc(F)cc1 [Example 41, (R)-(5-(3-((1-(4-fluorophenyl)ethyl)amino)-1,2,4-triazin-6-yl)pyridin-3-yl)methanol]	–	–
≤ 1000	≤ 200	Cc1cncc(-c2ccc(NC(C)c3ccc(Cl)cc3)nc2)c1 (single isomer, unassigned) [Example 46a, N-(1-(4-chlorophenyl)ethyl)-5′-methyl-[3,3′-bipyridin]-6-amine]	–	–
≤ 1000	≤ 5000	C[C@@H](Nc1cnc(-c2cncc(CC(F)(F)F)c2)nn1)c1ccc(F)cc1 [Example 56, (R)-N-(1-(4-fluorophenyl)ethyl)-3-(5-(2,2,2-trifluoroethyl)pyridin-3-yl)-1,2,4-triazin-6-amine]	–	–
≤ 1000	≤ 50	CC(O)c1cncc(-c2ccc(N[C@H](C)c3ccc(F)cc3)nc2)c1 (single isomer, unassigned) [Example 16a]	–	–
≤ 1000	≤ 1000	C[C@@H](Nc1ncc(-c2ccc3oc(=O)n(C)c3c2)cn1)c1ccc(F)cc1 [Example 63, (R)-5-(2-((1-(4-fluorophenyl)ethyl)amino)pyrimidin-5-yl)-3-methylbenzo[d]oxazol-2(3H)-one]	–	–
≤ 50	≤ 50	C[C@@H](Nc1cnc(-c2cncc(CC(F)F)c2)cn1)c1ccc(F)cc1 [Example 31, (R)-5-(5-(2,2-difluoroethyl)pyridin-3-yl)-N-(1-(4-fluorophenyl)ethyl)pyrazin-2-amine]	–	significantly reduced the frequency
≤ 1000	≤ 5000	C[C@@H](Nc1cnc(-c2cncc([S+](C)[O-])c2)cn1)c1ccc(F)cc1 (stereo partly drawn) [Example 23, N-((R)-1-(4-fluorophenyl)ethyl)-5-(5-(methylsulfinyl)pyridin-3-yl)pyrazin-2-amine]	–	–
≤ 50	≤ 1000	CCc1cncc(-c2ccc(N[C@H](C)c3ccccc3)nc2)c1 [Example 49, (R)-5′-ethyl-N-(1-phenylethyl)-[3,3′-bipyridin]-6-amine]	–	–
≤ 1000	≤ 200	C[C@@H](Nc1cnc(-c2cncc(C(O)C(F)F)c2)cn1)c1ccc(F)cc1 (single isomer, unassigned) [Example 54a]	–	–
≤ 1000	≤ 5000	C=Cc1cc(-c2cnc(N[C@H](C)c3ccc(F)cc3)cn2)cnn1 [Example 44, (R)-N-(1-(4-fluorophenyl)ethyl)-5-(6-vinylpyridazin-4-yl)pyrazin-2-amine]	–	–
≤ 50	≤ 50	C[C@@H](Nc1cnc(-c2cncc(C(O)C(F)(F)F)c2)cn1)c1ccc(F)cc1 (single isomer, unassigned) [Example 32a]	–	–
≤ 50	≤ 1000	CCc1cncc(-c2ccc(N[C@H](C)c3cccc(F)c3)nc2)c1 [Example 48, (R)-5′-ethyl-N-(1-(3-fluorophenyl)ethyl)-[3,3′-bipyridin]-6-amine]	–	–
≤ 1000	≤ 1000	CC(Nc1ncc(-c2ccc3oc(=O)n(C)c3c2)nn1)c1ccc(Cl)c(Cl)c1 (single isomer, unassigned) [Example 78a, 5-(3-((1-(3,4-dichlorophenyl)ethyl)amino)-1,2,4-triazin-6-yl)-3-methylbenzo[d]oxazol-2(3H)-one]	–	–
≤ 1000	≤ 1000	C[C@@H](Nc1ncc(-c2ccc3oc(=O)n(C)c3c2)nn1)c1ccc(F)c(F)c1 [Example 76, (R)-5-(3-((1-(3,4-difluorophenyl)ethyl)amino)-1,2,4-triazin-6-yl)-3-methylbenzo[d]oxazol-2(3H)-one]	–	–
≤ 50	≤ 5000	C[C@@H](Nc1cnc(-c2cnnc(C(O)C(F)(F)F)c2)cn1)c1ccc(F)cc1 (stereo partly drawn) [Example 58, 2,2,2-trifluoro-1-(5-(5-(((R)-1-(4-fluorophenyl)ethyl)amino)pyrazin-2-yl)pyridazin-3-yl)ethan-1-ol]	–	–
